Literature values as cited in patent US8785426B1, “Testosterone gel compositions and related methods” (Upsher-Smith Laboratories, Inc., priority 2013, dated 2014).

Conditions: reported solubility

**Q.** With `C[C@]12CC[C@H]3[C@@H](CCC4=CC(=O)CC[C@@]43C)[C@@H]1CC[C@@H]2O` [Testosterone, 17-β-hydroxyandrost-4-en-3-one] as the compound, how does the “solubility in ethyl alcohol” value read?
**A.** 0.17 grams per gram ethyl alcohol
